How the values were obtained:
Type in all cases: in vivo
[1] = tested on: redroot pigweed (Amaranthus retroflexus, AMARE); assay: Pre-emerge test, greenhouse herbicide activity screening; conditions: rating scale 0-100, 14 days after application
Outline: (§1)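 Compounds in acetone were track-sprayed at 187 l/ha, 15–1000 g ai/ha, onto sandy loam pots. Pre-emerge seeds were sown one day before spraying, with surface watering afterwards. Post-emerge plants were at the 2–3 leaf stage and sprayed with 0.25% v/v non-ionic surfactant. Injury was rated 0–100 at 14 days.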

[2] = tested on: lambsquarters (Chenopodium album, CHEAL); assay: as above; conditions: rating scale 0-100, 14 days after application
Outline: (§2)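 Sandy loam pots; pre-emerge: sown 1 d pre-spray, surface-watered after, then bottom-watered. Post-emerge: sown 8–21 d before, 2–3 leaf stage, + 0.25% v/v NIS, bottom-watered. Acetone, 187 l/ha track spray, 15–1000 g ai/ha. 0–100 injury score, day 14.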

[3] = tested on: johnsongrass (Sorghum halepense, SORHA); assay: as above; conditions: rating scale 0-100, 14 days after application
Outline: as §2

[4] = tested on: velvetleaf (Abutilon theophrasti, ABUTH); assay: as above; conditions: rating scale 0-100, 14 days after application
Outline: as §2

[5] = tested on: barnyardgrass (Echinochloa crus-galli, ECHCG); assay: as above; conditions: rating scale 0-100, 14 days after application
Outline: as §2

[6] = tested on: sicklepod (Cassia obtusifolia, CASOB); assay: as above; conditions: rating scale 0-100, 14 days after application
Outline: as §2

[7] = tested on: ivyleaf morningglory (Ipomoea hederacea, IPOHE); assay: as above; conditions: rating scale 0-100, 14 days after application
Outline: as §2

[8] = tested on: green foxtail (Setaria viridis, SETVI); assay: as above; conditions: rating scale 0-100, 14 days after application
Outline: as §2

[9] = tested on: large crabgrass (Digitaria sanguinalis, DIGSA); assay: as above; conditions: rating scale 0-100, 14 days after application
Outline: as §2

[10] = tested on: field corn (Zea mays L., var. Dekalb 535, CORN); assay: Pre-emerge test, crop safety; conditions: rating scale 0-100, 14 days after application
Outline: as §1

[11] = tested on: upland rice (Oryza sp., var. Tebonnet, RICE); assay: Pre-emerge test, crop safety; conditions: rating scale 0-100, 14 days after application
Outline: as §1

[12] = tested on: field corn (Zea mays L., var. Dekalb 535, CORN); assay: Post-emerge test, crop safety; conditions: rating scale 0-100 (0 no damage, 100 complete death), 14 days after application
Outline: as §2

[13] = tested on: upland rice (Oryza sp., var. Tebonnet, RICE); assay: Post-emerge test, crop safety; conditions: rating scale 0-100 (0 no damage, 100 complete death), 14 days after application
Outline: as §2

[14] = tested on: lambsquarters (Chenopodium album, CHEAL); assay: Post-emerge test, greenhouse herbicide activity screening; conditions: rating scale 0-100 (0 no damage, 100 complete death), 14 days after application
Outline: (§3)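 Visual ratings on a 0-100 scale (0 no damage, 100 all plants dead) were taken at 14 days after treatment. Rates of 15-1000 g ai/ha in acetone, 187 l/ha, were sprayed onto soil one day after planting (pre-emerge) or onto 2-3 leaf plants with 0.25% v/v surfactant (post-emerge).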

[15] = tested on: johnsongrass (Sorghum halepense, SORHA); assay: as above; conditions: rating scale 0-100 (0 no damage, 100 complete death), 14 days after application
Outline: as §3

[16] = tested on: velvetleaf (Abutilon theophrasti, ABUTH); assay: as above; conditions: rating scale 0-100 (0 no damage, 100 complete death), 14 days after application
Outline: as §3

[17] = tested on: barnyardgrass (Echinochloa crus-galli, ECHCG); assay: as above; conditions: rating scale 0-100 (0 no damage, 100 complete death), 14 days after application
Outline: as §3

[18] = tested on: sicklepod (Cassia obtusifolia, CASOB); assay: as above; conditions: rating scale 0-100 (0 no damage, 100 complete death), 14 days after application
Outline: as §3

[19] = tested on: ivyleaf morningglory (Ipomoea hederacea, IPOHE); assay: as above; conditions: rating scale 0-100 (0 no damage, 100 complete death), 14 days after application
Outline: as §3

[20] = tested on: redroot pigweed (Amaranthus retroflexus, AMARE); assay: as above; conditions: rating scale 0-100 (0 no damage, 100 complete death), 14 days after application
Outline: as §3

[21] = tested on: green foxtail (Setaria viridis, SETVI); assay: as above; conditions: rating scale 0-100 (0 no damage, 100 complete death), 14 days after application
Outline: as §3

[22] = tested on: large crabgrass (Digitaria sanguinalis, DIGSA); assay: as above; conditions: rating scale 0-100 (0 no damage, 100 complete death), 14 days after application
Outline: as §3

Compound: COc1c(Cl)cc(F)c(-n2c(=O)cc(C(F)(F)F)n(C)c2=O)c1CC(C)(Cl)C(=O)OCc1ccccc1 (centres unmarked) [14-41]
- Pre-emerge herbicidal activity, phytotoxicity rating AMARE ([1]; 63 g ai/ha): 100
- Pre-emerge herbicidal activity, phytotoxicity rating AMARE ([1]; 250 g ai/ha): 100
- Pre-emerge herbicidal activity, phytotoxicity rating CHEAL ([2]; 63 g ai/ha): 100
- Pre-emerge herbicidal activity, phytotoxicity rating CHEAL ([2]; 250 g ai/ha): 100
- Pre-emerge herbicidal activity, phytotoxicity rating SORHA ([3]; 63 g ai/ha): 0
- Pre-emerge herbicidal activity, phytotoxicity rating SORHA ([3]; 250 g ai/ha): 0
- Pre-emerge herbicidal activity, phytotoxicity rating ABUTH ([4]; 63 g ai/ha): 90
- Pre-emerge herbicidal activity, phytotoxicity rating ABUTH ([4]; 250 g ai/ha): 100
- Pre-emerge herbicidal activity, phytotoxicity rating ECHCG ([5]; 63 g ai/ha): 0
- Pre-emerge herbicidal activity, phytotoxicity rating ECHCG ([5]; 250 g ai/ha): 80
- Pre-emerge herbicidal activity, phytotoxicity rating CASOB ([6]; 63 g ai/ha): 0
- Pre-emerge herbicidal activity, phytotoxicity rating CASOB ([6]; 250 g ai/ha): 0
- Pre-emerge herbicidal activity, phytotoxicity rating IPOHE ([7]; 63 g ai/ha): 0
- Pre-emerge herbicidal activity, phytotoxicity rating IPOHE ([7]; 250 g ai/ha): 40
- Pre-emerge herbicidal activity, phytotoxicity rating SETVI ([8]; 63 g ai/ha): 30
- Pre-emerge herbicidal activity, phytotoxicity rating SETVI ([8]; 250 g ai/ha): 100
- Pre-emerge herbicidal activity, phytotoxicity rating DIGSA ([9]; 63 g ai/ha): 50
- Pre-emerge herbicidal activity, phytotoxicity rating DIGSA ([9]; 250 g ai/ha): 100
- Pre-emerge phytotoxicity rating, crop damage CORN ([10]; 63 g ai/ha): 0
- Pre-emerge phytotoxicity rating, crop damage CORN ([10]; 250 g ai/ha): 0
- Pre-emerge phytotoxicity rating, crop damage RICE ([11]; 63 g ai/ha): 0
- Pre-emerge phytotoxicity rating, crop damage RICE ([11]; 250 g ai/ha): 50
- Post-emerge phytotoxicity rating CORN (crop damage) ([12]; Rate 63 g ai/ha): 100
- Post-emerge phytotoxicity rating CORN (crop damage) ([12]; Rate 250 g ai/ha): 100
- Post-emerge phytotoxicity rating RICE (crop damage) ([13]; Rate 63 g ai/ha): 20
- Post-emerge phytotoxicity rating RICE (crop damage) ([13]; Rate 250 g ai/ha): 95
- Post-emerge Herbicidal Activity, phytotoxicity rating CHEAL ([14]; Rate 63 g ai/ha): 100
- Post-emerge Herbicidal Activity, phytotoxicity rating CHEAL ([14]; Rate 250 g ai/ha): 100
- Post-emerge Herbicidal Activity, phytotoxicity rating SORHA ([15]; Rate 63 g ai/ha): 40
- Post-emerge Herbicidal Activity, phytotoxicity rating SORHA ([15]; Rate 250 g ai/ha): 70
- Post-emerge Herbicidal Activity, phytotoxicity rating ABUTH ([16]; Rate 63 g ai/ha): 100
- Post-emerge Herbicidal Activity, phytotoxicity rating ABUTH ([16]; Rate 250 g ai/ha): 100
- Post-emerge Herbicidal Activity, phytotoxicity rating ECHCG ([17]; Rate 63 g ai/ha): 100
- Post-emerge Herbicidal Activity, phytotoxicity rating ECHCG ([17]; Rate 250 g ai/ha): 100
- Post-emerge Herbicidal Activity, phytotoxicity rating CASOB ([18]; Rate 63 g ai/ha): 0
- Post-emerge Herbicidal Activity, phytotoxicity rating CASOB ([18]; Rate 250 g ai/ha): 0
- Post-emerge Herbicidal Activity, phytotoxicity rating IPOHE ([19]; Rate 63 g ai/ha): 30
- Post-emerge Herbicidal Activity, phytotoxicity rating IPOHE ([19]; Rate 250 g ai/ha): 50
- Post-emerge Herbicidal Activity, phytotoxicity rating AMARE ([20]; Rate 63 g ai/ha): 100
- Post-emerge Herbicidal Activity, phytotoxicity rating AMARE ([20]; Rate 250 g ai/ha): 100
- Post-emerge Herbicidal Activity, phytotoxicity rating SETVI ([21]; Rate 63 g ai/ha): 90
- Post-emerge Herbicidal Activity, phytotoxicity rating SETVI ([21]; Rate 250 g ai/ha): 100
- Post-emerge Herbicidal Activity, phytotoxicity rating DIGSA ([22]; Rate 63 g ai/ha): 100
- Post-emerge Herbicidal Activity, phytotoxicity rating DIGSA ([22]; Rate 250 g ai/ha): 100

Source: US6355799B1, “Substituted benzene compounds, process for their preparation, and herbicidal and defoliant compositions containing them” (ISK Americas Incorporated, priority 1997, dated 2002)
